Measured values reported in patent US11866416B2, “Streptococcus mutans glucosyl transferase inhibitors for dental caries therapy” (UAB Research Foundation, priority 2018, dated 2024).
≈ marks a conversion by molar mass, not a printed value. Where two headings read alike, the source gives them in different places.

Tests used:
S. mutans = assay: microbe, parasite or virus in culture; assay type: cell-based, Streptococcus mutans; conditions: for Growth MIC50: Table 8, stilbenes
Outline: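 Mid-exponential cultures (OD470 0.6) in THB were exposed to compound concentrations for 16 h, with growth read at OD470 and normalised to 1% DMSO control (100%). CFU/mL were also counted after 24 h at 37 °C and compared with the DMSO control.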

S. mutans Gtfs = assay: Gtf zymographic assay with SDS-PAGE; assay type: biochemical, Streptococcus mutans; conditions: for glucan production in zymogram assay: stilbenes, versus DMSO control
Method: A well-established zymographic assay was used to determine enzymatic activity of Gtfs (Mattos-Graner et al. (2004) J. Clin. Microbiol. 42, […]). In brief, overnight S. mutans UA159 cultures were diluted 1:100 in fresh 5 mL THB with 50 μL of selective compounds at a series of concentrations. Treated bacteria were grown to OD470 of 1.0, and spun down by centrifugation at 4° C., and culture supernatants were collected and filtered through a 0.22-μm-pore-size filter membrane to remove residual bacterial cells and dialyzed at 4° C. against 0.02 M sodium phosphate buffer (pH 6.8), with 10 μM phenylmethylsulfonyl fluoride (PMSF), followed by a second dialysis against 0.2 mM sodium phosphate containing 10 μM PMSF. After dialysis, 4 mL of samples were concentrated to 40 μL by 100K Amicon Ultra-4 centrifugal filter (Merck Millipore Ltd.). For electrophoresis and zymographic analysis, 10 μL of each concentrated culture supernatant was applied to 8% SDS-PAGE in duplicate. One gel was used for protein staining with Coomassie blue dye, while the other one was subjected to zymographic assay as described (Mattos-Graner et al. (2004) J. Clin. Microbiol. 42, […]). The resultant white opaque glucan bands were visualized against a black background.
Inhibition of the activity of Gtfs determined by zymographic assays. Well established zymographic assay was used to determine enzymatic activity of Gtfs. In brief, overnight S. mutans UA159 cultures were diluted 1:100 in fresh 5 mL THB. Bacteria were grown to OD470 of 1.0, and spun down by centrifugation at 4° C. and culture supernatants were collected and filtered through a 0.22-μm-pore-size filter membrane to remove residual bacterial cells and dialyzed at 4° C. against 0.02 M sodium phosphate buffer (pH 6.8), with 10 μM phenylmethylsulfonyl fluoride (PMSF), followed by a second dialysis against 0.2 mM sodium phosphate containing 10 μM PMSF. After dialysis, 4 mL of samples were concentrated to 40 μL by 100K Amicon Ultra-4 centrifugal filter (Merk Millipore Ltd.). For electrophoresis and zymographic analysis, 10 μL of each concentrated culture supernatant was applied to 8% SDS-PAGE in duplicate. One gel was used for protein staining with Coomassie blue dye, while the other one was subjected to zymographic assay. For zymogram analysis, following electrophoretic separation, gels were washed twice for 15 min each with renaturing buffer containing 2.5% Triton X-100. Gels were then incubated for 18 h at 37° C. with 0.2 M sodium phosphate buffer (pH 6.5) containing 0.2% dextran T70, 5% sucrose, and varying concentrations of the small molecule inhibitors. The reactions were stopped by washing gels with distilled water at 4° C. for 10 min, and digital images of the resultant white opaque glucan bands were visualized against a black background and captured using a digital camera.
Inhibition of the activity of Gtfs determined by zymographic assays. A well-established zymographic assay was used to determine enzymatic activity of Gtfs (Mattos-Graner, R. O., Napimoga, M. H., Fukushima, K., Duncan, M. J., Smith, D. J., J Clin Microbiol, 2004, 42, 4586). In brief, overnight S. mutans UA159 cultures were diluted 1:100 in fresh 5 mL THB with 50 μL of selective compounds at a series of concentrations. Treated bacteria were grown to OD470 of 1.0, and spun down by centrifugation at 4° C., and culture supernatants were collected and filtered through a 0.22-μm-pore-size filter membrane to remove residual bacterial cells and dialyzed at 4° C. against 0.02 M sodium phosphate buffer (pH 6.8), with 10 μM phenylmethylsulfonyl fluoride (PMSF), followed by a second dialysis against 0.2 mM sodium phosphate containing 10 μM PMSF. After dialysis, 4 mL of samples were concentrated to 40 μL by 100K Amicon Ultra-4 centrifugal filter (Merk Millipore Ltd.). For electrophoresis and zymographic analysis, 10 μL of each concentrated culture supernatant was applied to 8% SDS-PAGE in duplicate. […]

S. sanguinis = assay: Growth of commensal S. sanguinis; assay type: cell-based, Streptococcus sanguinis
Method: Cell viability of S. mutans, S. gordonii, S. sanguinis, Aggregatibacter actinomycetemcomitans and Actinomyces. […] The number of colony-forming units (CFU) per milliliter of each sample treated with selected compounds at different concentrations was enumerated after incubation for 24 h at 37° C. and compared to the values obtained from the DMSO control group. Overnight broth cultures were transferred by 1:50 dilutions into fresh THB medium and were allowed to grow until mid-exponential phase (OD470 nm 0.6) before transfer to 96-well plates containing desired concentration of the compound. After 16 h incubation, bacterial growth was measured at OD470, and normalized to the DMSO control (100%).
Cell viability of S. mutans and commensal S. gordonii and S. sanguinis. Effects of lead small molecules on cell viability were examined. The number of colony-forming units (CFU) per milliliter for each compound at different concentrations was determined after incubation for 24 h at 37° C. and compared to the values obtained from the DMSO control group.
Cell viability of S. mutans and commensal S. gordonii and S. sanguinis. […] DMSO served as a control group and provided a relative comparison for the number of colony-forming units (CFU) per milliliter for each compound at different concentrations was determined after incubation for 24 h at 37° C. The final concentration of DMSO used in the assays was 1%.

[1] = Streptococcus mutans, Table 3, >300 = no inhibition up to 300 μM, NI = no inhibition up to 400 μM, read-out: Growth Inhibition MIC50
[2] = Streptococcus mutans, Table 4, stilbenes, average of at least 5 measurements, NI = no inhibition, read-out: Growth MIC50
[3] = average of at least 5 measurements, NI = no inhibition

SMILES	S. mutans cell viability (CFU) versus control (S. mutans; up to 200 μM)	glucan production of the Gtfs in zymographic assay (S. mutans Gtfs; 25 μM, Gtfs from wild type S. mutans)	glucan bands in zymographic assay (S. mutans Gtfs; 50 μM, Gtfs from S. mutans UA159 supernatants)	effect on S. sanguinis growth (S. sanguinis; 200 μM, OD470)	MIC50 (S. mutans; [1])	MIC50 (S. mutans; [2])	Growth MIC50 (S. mutans; [3])	glucan production in zymogram assay (S. mutans Gtfs)	inhibition of S. mutans cell viability (%) at 400 µM (S. mutans; Streptococcus mutans, 400 μM)	inhibition at 52 µM (S. mutans; Streptococcus mutans, at 52 μM, read-out: growth of S. mutans inhibited)	decrease of S. sanguinis cell density (S. sanguinis; 400 μM)	inhibition at 52 µM (S. sanguinis; Streptococcus sanguinis, at 52 μM, read-out: growth of S. sanguinis inhibited)
NC(=O)c1ccccc1NC(=O)c1cc2cc([N+](=O)[O-])ccc2s1 [#G43]	No significant difference	drastically reduced the glucan production	drastically reduced the glucan bands	did not have any effect on bacterial growth	–	–	–	–	–	–	–	–
Oc1ccc(/C=C/c2cc(O)cc(O)c2)cc1 [Resveratrol, reference compound]	–	–	–	–	546 ± 16 µM (≈ 125 µg/mL)	546 ± 15.9 µM (≈ 125 µg/mL)	546.4 ± 15.9 µM	marginal inhibition	–	–	–	–
Oc1cc(O)cc(/C=C/c2ccc(O)c(O)c2)c1 [Piceatannol]	–	–	–	–	564 ± 38 µM (≈ 138 µg/mL)	564 ± 37.8 µM (≈ 138 µg/mL)	564 ± 37.8 µM	greatly reduced glucan production	37%	< 10%	15-18%	< 10%
